The text below walks through data of PMC9586938, “Picomolar fluorescent probes for compound affinity determination to carbonic anhydrase IX expressed in live cancer cells” (Scientific Reports, 2022).

Bounds are passed on as bounds.

For one series, the target named is T1, CAVI (Homo sapiens, UniProt P23280).
T1 construct: made in house; host or cells: E. coli
In words: Thermal shift assay (TSA), recombinant CAVI. It counts as binding. Particulars: 37 °C, pH 7.0, observed (not intrinsic). As for the experimental part:
(§1) The binding affinities of all fluorescein-containing compounds were determined for all 12 catalytically active CA isozymes by the thermal shift assay (TSA). […] However, the SFA technique cannot determine the affinities lower than the enzyme concentration used in the assay. […] In addition, we used isothermal titration calorimetry (ITC), the standard assay to determine affinity and enthalpy of protein–ligand binding. […] Therefore, ITC was used only to determine the enthalpy of interaction and confirm the ordering of compound affinities.
(§2) All twelve catalytically active human CA isozymes were prepared recombinantly as previously described. Isozymes CAIX, CAXII, and CAXIV were the catalytic domains of the proteins[14],[38]. All isozymes were expressed in E. coli except CAIX that has been prepared in mammalian cells. The proteins were chromatographically purified on ion-exchange or benzene sulfonamide containing affinity columns. Protein MW was confirmed by mass spectrometry with 1 Da precision as predicted from gene sequence.
(§3) Compound affinities for the twelve catalytically active CA isozymes were determined by the thermal shift assay as previously described[30],[39]. Protein solutions containing 1,8-anilinonaphthalenesulfonate fluorescent probe were heated from 25 to 100 °C at a rate of one degree per minute while following the fluorescence of the probe. The temperature scanning curves provided the melting temperature Tm of the protein. The Tm has a distinct dependence on the concentration of a compound. Stronger binders shift the Tm to a greater extent than the weak binders. The Tm dependencies on compound concentration were fit to obtain the affinity Kd[40].

The target in another series is T2, CAVII (Homo sapiens, UniProt P43166).
T2 construct: made in house; host or cells: E. coli
Nature of the series: Thermal shift assay (TSA), recombinant CAVII. Format: binding. The conditions noted are these: 37 °C, pH 7.0, observed (not intrinsic).

For the next series, the target named is T3, CAXIV (Homo sapiens, UniProt Q9ULX7).
T3 construct: Isozymes CAIX, CAXII, and CAXIV were the catalytic domains of the proteins; made in house; host or cells: E. coli
Nature of the series: Thermal shift assay (TSA), recombinant CAXIV. The conditions noted are these: 37 °C, pH 7.0, observed (not intrinsic). It counts as binding.

For series [1], the target named is T4, CAIX expressed on HeLa cells (Homo sapiens, UniProt Q16790).
T4 construct: recombinant CAIX and endogenous CAIX expressed on the cell surface; endogenous in cells; host or cells: HeLa (WT), grown under hypoxia (1% O2)
Nature of the series: Fluorescein-labeled compound dosing to hypoxia-grown WT HeLa cells (Morrison single-site model). It counts as cell-based. As for the experimental part: HeLa cell culture was grown in 12-well plates, either under hypoxia (1% O2) or under normoxia (21% O2), for 70 to 76 h. The medium was removed. Then 200 µL of serially diluted compound (twelve twofold steps) in the FB medium, usually starting at 80 nM (80, 40, 20, …, 0 nM), was added and incubated at 37 ℃ under normoxia in the CO2 incubator for 20 min (2 or 5 min in some experiments where specified). Then the compound solution was removed and the cells were washed 3 times for 1.5–2 min with 400 µL of PBS at RT. Then 180 µL of TrypLe express enzyme (ThermoFisher) was added to each well and incubated in CO2 incubator for 5 min to 10 min until the cells deattached from the surface. After addition of 20 µL of Defined Trypsin Inhibitor solution (ThermoFisher), cells were resuspended by pipetting and 150 µL of the suspension from each well were transferred to black Thermo Scientific™ Nunc MicroWell 96-Well Optical-Bottom Plates for fluorescence and absorbance measurements. The fluorescence was recorded at 485 nm excitation and 520 nm emission wavelengths in the plate reader (Synergy HTX, BioTek). The absorbance was recorded at 650 nm to measure the optical density of the cell suspension.
The compound solution was prepared by weighing 3–5 mg of a purified compound and dissolving in DMSO at 10 mM concentration. The 1 mM compound stock in DMSO was prepared by taking 10 µL of 10 mM stock and adding to 90 µL DMSO. The 10 µM compound stock was prepared by taking 10 µL of 1 mM compound stock in DMSO and adding 990 µL of the FB medium (this stock contained 1% of DMSO). Then 80 nM compound solution was prepared by taking 10 µL of 10 µM solution and adding 1.24 mL of the FB medium and placed to the first Eppendorf tube. Then 300 µL of FB medium were added to the Eppendorf tubes 2 to 12. A serial dilution was performed by taking 300 µL of solution from tube 1 to 2, then from 2 to 3 and so on while mixing vigorously at each step. No solution was transferred to the last tube thus it contained only FB medium and no compound. Then 200 µL from 12 tubes were transferred to the 12 wells of cell culture-containing 12-well plate, starting from the lowest concentration.
Application of fluorescently labeled ligand GZ19-32 to cancer cells expressing CAIX will stain the cells in dose-dependent manner. The fraction of saturation increases from 0 to 1. The fraction of bound GZ19-32 (f) is equal to the molar concentration of bound GZ19-32 per molar concentration of total available CAIX, the so-called total protein Pt . f=GZ19-32bound/Pt
Upon GZ19-32 dosing, the observed fluorescence signal F can be modeled to change from the minimal background signal ( Fmin ) to maximal saturated value ( Fmax ): F=Fmin+Fmax-Fminf […]

Another series concerns the target T5, CAXII (Homo sapiens, UniProt O43570).
T5 construct: Isozymes CAIX, CAXII, and CAXIV were the catalytic domains of the proteins; made in house; host or cells: E. coli
In words: Thermal shift assay (TSA), recombinant CAXII. It counts as binding. The conditions noted are these: 37 °C, pH 7.0, observed (not intrinsic). As for the experimental part: as §1, §2, §3

For the next series, the target named is T6, CAVA (Homo sapiens, UniProt P35218).
T6 construct: made in house; host or cells: E. coli
Nature of the series: Thermal shift assay (TSA), recombinant CAVA. Format: binding. Particulars: 37 °C, pH 7.0, observed (not intrinsic). As for the experimental part: as §1, §2, §3

Series [2] addresses T7, catalytic domain of recombinant human CAIX (Homo sapiens, UniProt Q16790).
T7 construct: Isozymes CAIX, CAXII, and CAXIV were the catalytic domains of the proteins; made in house; host or cells: mammalian cells
In words: Stopped-flow assay (SFA) of inhibition of CAIX catalytic activity. It counts as biochemical. How it is done:
as §1
Inhibition of the CAIX catalytic activity (hydration reaction of CO2 to acid protons and bicarbonate) by selected compounds has been determined as previously described[41],[42]. The CA enzymatic activity and its inhibition were followed by the rate of change in pH spectrophotometrically followed by the change in color of indicator phenol red. Addition of increased concentrations of an inhibitor slowed the rate of the change in pH. The assay was performed using the stopped-flow equipment. The rate of spontaneous acidification due to CO2 hydration in water was subtracted from the enzymatically catalyzed rate.

T1 sequence (P23280 18-308): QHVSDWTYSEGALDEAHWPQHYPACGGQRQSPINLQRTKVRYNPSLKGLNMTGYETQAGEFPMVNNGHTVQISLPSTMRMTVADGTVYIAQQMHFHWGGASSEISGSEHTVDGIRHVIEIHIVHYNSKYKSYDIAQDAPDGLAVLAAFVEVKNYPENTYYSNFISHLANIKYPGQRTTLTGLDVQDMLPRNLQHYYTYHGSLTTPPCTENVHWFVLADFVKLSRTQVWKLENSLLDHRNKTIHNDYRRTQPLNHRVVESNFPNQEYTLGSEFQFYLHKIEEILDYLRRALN
T5 sequence (O43570 30-289 limits assumed): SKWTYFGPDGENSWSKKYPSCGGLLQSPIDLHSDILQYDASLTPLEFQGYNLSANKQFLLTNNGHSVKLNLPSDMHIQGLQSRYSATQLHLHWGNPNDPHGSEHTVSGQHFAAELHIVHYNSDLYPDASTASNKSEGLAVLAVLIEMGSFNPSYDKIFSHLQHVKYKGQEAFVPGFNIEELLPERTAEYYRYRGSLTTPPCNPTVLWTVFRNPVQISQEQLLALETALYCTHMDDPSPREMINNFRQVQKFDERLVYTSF
T6 sequence (P35218 39-305): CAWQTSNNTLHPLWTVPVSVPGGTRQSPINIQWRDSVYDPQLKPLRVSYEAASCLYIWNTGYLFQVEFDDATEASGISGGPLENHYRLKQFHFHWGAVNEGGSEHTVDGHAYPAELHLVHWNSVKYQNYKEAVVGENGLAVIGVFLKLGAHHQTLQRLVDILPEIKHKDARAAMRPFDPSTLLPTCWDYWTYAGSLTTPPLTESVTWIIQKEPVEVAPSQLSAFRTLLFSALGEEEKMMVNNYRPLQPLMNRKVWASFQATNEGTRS
T2 sequence (P43166 whole entry): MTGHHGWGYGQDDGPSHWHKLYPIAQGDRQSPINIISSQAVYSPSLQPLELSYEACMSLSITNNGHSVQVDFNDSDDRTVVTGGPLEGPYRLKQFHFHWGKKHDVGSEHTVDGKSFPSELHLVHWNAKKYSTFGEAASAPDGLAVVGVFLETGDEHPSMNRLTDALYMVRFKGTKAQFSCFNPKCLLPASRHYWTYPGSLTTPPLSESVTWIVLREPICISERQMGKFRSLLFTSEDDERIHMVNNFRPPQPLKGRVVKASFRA
T3 sequence (Q9ULX7 20-278 limits assumed): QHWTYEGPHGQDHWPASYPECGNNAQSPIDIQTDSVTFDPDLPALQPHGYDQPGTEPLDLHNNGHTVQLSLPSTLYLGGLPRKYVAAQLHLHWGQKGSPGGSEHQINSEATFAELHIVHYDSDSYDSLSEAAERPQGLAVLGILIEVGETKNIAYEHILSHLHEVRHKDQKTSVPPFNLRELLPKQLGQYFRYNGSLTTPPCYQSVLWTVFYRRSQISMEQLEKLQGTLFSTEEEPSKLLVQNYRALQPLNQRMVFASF

On to `NS(=O)(=O)c1c(F)c(F)c(S(=O)(=O)CCC(=O)Nc2ccc3c(c2)C(=O)OC32c3ccc(O)cc3Oc3cc(O)ccc32)c(NC2CCCCCCC2)c1F` [GZ19-32, 3-((2-(cyclooctylamino)-3,5,6-trifluoro-4-sulfamoylphenyl)sulfonyl)-N-(3',6'-dihydroxy-3-oxo-3H-spiro[isobenzofuran-1,9'-xanthen]-5-yl)propanamide], for which the melting point fell in the range of 189 to 190 °C. Further, the Kd at CAVI was 330 nM. Further, on CAVII, the Kd was 5 nM. For the same molecule, the Kd on CAXIV is 3.3 nM. The “number of bound molecules per HeLa cell” value in series [1] (approximately 80 h of growth under hypoxia) is recorded as “exceeded 1 million”. Besides, the “concentration at which saturation was reached” value in series [1] (hypoxia-grown HeLa cells) is on record as “approximately 10 nM”. Besides, at CAXII, the Kd was 1.3 nM. On CAVA, the Kd came to 400 nM.

With “3-((2-(cyclooctylamino)-3,5,6-trifluoro-4-(methylsulfonyl)phenyl)sulfonyl)-N-(3',6'-dihydroxy-3-oxo-3H-spiro[isobenzofuran-1,9'-xanthen]-5-yl)propanamide and 3-((3-(cyclooctylamino)-2,5,6-trifluoro-4-(methylsulfonyl)phenyl)sulfonyl)-N-(3',6'-dihydroxy-3-oxo-3H-spiro[isobenzofuran-1,9'-xanthen]-5-yl)propanamide [GZ20-37]”, the Kd at CAVI, on CAVII, on CAXIV, on CAXII and at CAVA was above 100000 nM each time. In addition, in series [1] (same conditions as GZ19-32, up to about 100 nM), the “binding to hypoxia-grown HeLa cells in the nM concentration region” value is recorded as “did not bind”. Moreover, the Ki in series [2] came out at 1500 nM.
